Results as given in patent US20230092890A1, “1, 3, 4-Oxadiazole derivative compounds as histone deacetylase 6 inhibitor, and the pharmaceutical composition comprising the same” (Chong Kun Dang Pharmaceutical Corp., priority 2019, published 2023).

Experiments:
HDAC6 human recombinant = target: T1, HDAC6 human recombinant (Homo sapiens, UniProt Q9UBN7); test: HDAC enzyme activity inhibition (in vitro), HDAC6 assay; type: biochemical; settings: samples at 0.1, 1, 10, 100 and 1000 nM; 37° C. 60 minutes; fluorescence Ex 390, Em 460; read-out: HDAC6 IC50
T1 construct: purchased Calbiochem 382180
T1 sequence (Q9UBN7 1-1215): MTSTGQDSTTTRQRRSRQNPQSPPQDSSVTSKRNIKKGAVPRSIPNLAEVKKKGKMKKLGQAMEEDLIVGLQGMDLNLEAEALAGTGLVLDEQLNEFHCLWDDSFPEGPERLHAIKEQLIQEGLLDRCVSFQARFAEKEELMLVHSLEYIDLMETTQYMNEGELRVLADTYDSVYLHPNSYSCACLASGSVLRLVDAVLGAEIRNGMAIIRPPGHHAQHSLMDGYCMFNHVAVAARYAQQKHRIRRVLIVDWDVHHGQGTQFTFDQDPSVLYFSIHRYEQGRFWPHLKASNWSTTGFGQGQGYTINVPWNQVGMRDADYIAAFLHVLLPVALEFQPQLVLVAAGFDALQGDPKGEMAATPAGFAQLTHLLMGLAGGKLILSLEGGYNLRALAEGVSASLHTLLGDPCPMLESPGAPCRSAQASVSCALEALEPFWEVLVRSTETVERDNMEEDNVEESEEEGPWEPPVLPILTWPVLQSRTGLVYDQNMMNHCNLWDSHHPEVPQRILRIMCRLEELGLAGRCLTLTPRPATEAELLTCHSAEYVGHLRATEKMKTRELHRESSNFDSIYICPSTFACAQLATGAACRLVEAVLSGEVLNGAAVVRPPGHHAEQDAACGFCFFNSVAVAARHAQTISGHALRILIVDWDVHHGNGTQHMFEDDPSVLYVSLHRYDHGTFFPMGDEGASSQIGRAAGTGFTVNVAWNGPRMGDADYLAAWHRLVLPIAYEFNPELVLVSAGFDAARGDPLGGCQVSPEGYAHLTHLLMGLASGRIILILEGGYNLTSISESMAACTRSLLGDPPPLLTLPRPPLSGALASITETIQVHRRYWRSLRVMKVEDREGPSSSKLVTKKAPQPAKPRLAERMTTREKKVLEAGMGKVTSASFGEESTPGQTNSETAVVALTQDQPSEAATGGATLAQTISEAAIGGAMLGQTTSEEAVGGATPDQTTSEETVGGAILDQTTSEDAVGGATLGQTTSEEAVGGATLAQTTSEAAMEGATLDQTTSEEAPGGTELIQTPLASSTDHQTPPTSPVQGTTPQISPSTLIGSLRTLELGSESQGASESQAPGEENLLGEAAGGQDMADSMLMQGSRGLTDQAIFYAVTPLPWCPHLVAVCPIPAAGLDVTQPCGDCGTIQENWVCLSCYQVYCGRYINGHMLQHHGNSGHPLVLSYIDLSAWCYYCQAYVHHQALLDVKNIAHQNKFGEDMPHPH
Summary of the method: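 HDAC6 human recombinant enzyme with fluorimetric substrate; […]. Reaction 60 min at 37° C, then developer 30 min at 37° C; fluorescence read at Ex 390/Em 460.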

HDAC1 = target: T2, HDAC1 (Homo sapiens, UniProt Q13547); test: HDAC enzyme activity inhibition (in vitro), HDAC1 Fluorimetric Drug Discovery Assay Kit; type: biochemical; settings: samples at 100, 1000 and 10000 nM; 37° C. 60 minutes; fluorescence Ex 390, Em 460; read-out: HDAC1 IC50
T2 construct: purchased Enzolifesciences BML-AK511
T2 sequence (Q13547 whole entry): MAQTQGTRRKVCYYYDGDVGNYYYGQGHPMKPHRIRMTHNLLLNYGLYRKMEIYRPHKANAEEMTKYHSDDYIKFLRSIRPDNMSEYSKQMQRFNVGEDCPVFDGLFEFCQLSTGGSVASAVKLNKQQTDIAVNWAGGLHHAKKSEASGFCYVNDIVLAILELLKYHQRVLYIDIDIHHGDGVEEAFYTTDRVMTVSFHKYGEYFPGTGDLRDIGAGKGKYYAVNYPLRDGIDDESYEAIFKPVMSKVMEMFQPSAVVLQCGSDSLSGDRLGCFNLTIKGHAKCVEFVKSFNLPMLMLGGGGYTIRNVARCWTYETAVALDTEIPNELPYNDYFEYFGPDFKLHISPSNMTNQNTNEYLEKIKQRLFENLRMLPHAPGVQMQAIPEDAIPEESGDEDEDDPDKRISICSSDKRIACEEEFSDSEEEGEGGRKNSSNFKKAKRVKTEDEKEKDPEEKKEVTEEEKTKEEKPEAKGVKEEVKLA
Summary of the method: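 Compounds at 100, 1000, 10000 nM (HDAC1) or 0.1, 1, 10, 100, 1000 nM (HDAC6); 37° C, 60 min; developer, 37° C, 30 min; fluorescence Ex 390/Em 460.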

Row | Compound | IC50 (HDAC6 human recombinant) [nM] | IC50 (HDAC1) [nM]
1 | O=c1n(Cc2ccc(-c3nnc(C(F)F)o3)cc2F)c2cc(F)ccc2n1C1CCN(C2CCSCC2)CC1 [Compound 73, 3-(4-(5-(difluoromethyl)-1,3,4-oxadiazole-2-yl)-2-fluorobenzyl)-5-fluoro-1-(1-(tetrahydro-2H-thiopyran-4-yl)piperidine-4-yl)-1,3-dihydro-2H-benzo[d]imidazole-2-one] | 80 | > 10000
2 | O=c1n(Cc2ccc(-c3nnc(C(F)F)o3)cc2F)c2cc(F)ccc2n1C1CCN(C2CCC2)CC1 [Compound 74, 1-(1-cyclobutylpiperidine-4-yl)-3-(4-(5-(difluoromethyl)-1,3,4-oxadiazole-2-yl)-2-fluorobenzyl)-5-fluoro-1,3-dihydro-2H-benzo[d]imidazole-2-one] | 70 | > 10000
3 | CC(=O)N1CCC(n2c(=O)n(Cc3ccc(-c4nnc(C(F)F)o4)cc3F)c3cc(F)ccc32)CC1 [Compound 75] | 46 | > 10000
4 | CN1CCC(n2c(=O)n(Cc3ccc(-c4nnc(C(F)F)o4)cn3)c3c(F)cccc32)CC1 [Compound 76, 3-((5-(5-(difluoromethyl)-1,3,4-oxadiazole-2-yl)pyridine-2-yl)methyl)-4-fluoro-1-(1-methylpiperidine-4-yl)-1,3-dihydro-2H-benzo[d]imidazole-2-one] | 31 | > 10000
5 | O=c1n(Cc2ccc(-c3nnc(C(F)F)o3)cn2)c2c(F)cccc2n1C1CCN(C2COC2)CC1 [Compound 77, 3-((5-(5-(difluoromethyl)-1,3,4-oxadiazole-2-yl)pyridine-2-yl)methyl)-4-fluoro-1-(1-(oxetan-3-yl)piperidine-4-yl)-1,3-dihydro-2H-benzo[d]imidazole-2-one] | 35 | > 10000
6 | O=c1n(Cc2ccc(-c3nnc(C(F)F)o3)cn2)c2ccccc2n1C1CCN(C2COC2)CC1 [Compound 78, 1-((5-(5-(difluoromethyl)-1,3,4-oxadiazole-2-yl)pyridine-2-yl)methyl)-3-(1-(oxetan-3-yl)piperidine-4-yl)-1,3-dihydro-2H-benzo[d]imidazole-2-one] | 79 | > 10000
7 | CN1CCC(n2c(=O)n(Cc3ccc(-c4nnc(C(F)F)o4)cc3)c3cc(F)ccc32)CC1 [Compound 79, 3-(4-(5-(difluoromethyl)-1,3,4-oxadiazole-2-yl)benzyl)-5-fluoro-1-(1-methylpiperidine-4-yl)-1,3-dihydro-2H-benzo[d]imidazole-2-one] | 66 | > 10000
8 | O=c1n(Cc2ccc(-c3nnc(C(F)F)o3)cc2)c2cc(F)ccc2n1C1CCN(C2COC2)CC1 [Compound 80, 3-(4-(5-(difluoromethyl)-1,3,4-oxadiazole-2-yl)benzyl)-5-fluoro-1-(1-(oxetan-3-yl)piperidine-4-yl)-1,3-dihydro-2H-benzo[d]imidazole-2-one] | 61 | > 10000
9 | CN1CCC(n2c(=O)n(Cc3ccc(-c4nnc(C(F)F)o4)cn3)c3cc(Cl)c(Cl)cc32)CC1 [Compound 81, 5,6-dichloro-1-((5-(5-(difluoromethyl)-1,3,4-oxadiazole-2-yl)pyridine-2-yl)methyl)-3-(1-methylpiperidine-4-yl)-1,3-dihydro-2H-benzo[d]imidazole-2-one] | 15 | > 10000
10 | O=c1n(Cc2ccc(-c3nnc(C(F)F)o3)cn2)c2cc(Cl)c(Cl)cc2n1C1CCN(C2COC2)CC1 [Compound 82, 5,6-dichloro-1-((5-(5-(difluoromethyl)-1,3,4-oxadiazole-2-yl)pyridine-2-yl)methyl)-3-(1-(oxetan-3-yl)piperidine-4-yl)-1,3-dihydro-2H-benzo[d]imidazole-2-one] | 23 | > 10000
11 | CN1CCC(n2c(=O)n(Cc3ccc(-c4nnc(C(F)F)o4)cn3)c3cc(F)c(F)cc32)CC1 [Compound 83, 1-((5-(5-(difluoromethyl)-1,3,4-oxadiazole-2-yl)pyridine-2-yl)methyl)-5,6-difluoro-3-(1-methylpiperidine-4-yl)-1,3-dihydro-2H-benzo[d]imidazole-2-one] | 49 | > 10000
12 | O=c1n(Cc2ccc(-c3nnc(C(F)F)o3)cn2)c2cc(F)c(F)cc2n1C1CCN(C2COC2)CC1 [Compound 84, 1-((5-(5-(difluoromethyl)-1,3,4-oxadiazole-2-yl)pyridine-2-yl)methyl)-5,6-difluoro-3-(1-(oxetan-3-yl)piperidine-4-yl)-1,3-dihydro-2H-benzo[d]imidazole-2-one] | 36 | > 10000
13 | CN1CCC(n2c(=O)n(Cc3ccc(-c4nnc(C(F)F)o4)cc3)c3cc(Cl)c(Cl)cc32)CC1 [Compound 85, 5,6-dichloro-1-(4-(5-(difluoromethyl)-1,3,4-oxadiazole-2-yl)benzyl)-3-(1-methylpiperidine-4-yl)-1,3-dihydro-2H-benzo[d]imidazole-2-one] | 31 | > 10000
14 | O=c1n(Cc2ccc(-c3nnc(C(F)F)o3)cc2)c2cc(Cl)c(Cl)cc2n1C1CCN(C2COC2)CC1 [Compound 86, 5,6-dichloro-1-(4-(5-(difluoromethyl)-1,3,4-oxadiazole-2-yl)benzyl)-3-(1-(oxetan-3-yl)piperidine-4-yl)-1,3-dihydro-2H-benzo[d]imidazole-2-one] | 28 | > 10000
15 | CN1CCC(n2c(=O)n(Cc3ccc(-c4nnc(C(F)F)o4)cc3F)c3cc(Cl)c(Cl)cc32)CC1 [Compound 87, 5,6-dichloro-1-(4-(5-(difluoromethyl)-1,3,4-oxadiazole-2-yl)-2-fluorobenzyl)-3-(1-methylpiperidine-4-yl)-1,3-dihydro-2H-benzo[d]imidazole-2-one] | 63 | > 10000
16 | O=c1n(Cc2ccc(-c3nnc(C(F)F)o3)cc2F)c2cc(Cl)c(Cl)cc2n1C1CCN(C2COC2)CC1 [Compound 88, 5,6-dichloro-1-(4-(5-(difluoromethyl)-1,3,4-oxadiazole-2-yl)-2-fluorobenzyl)-3-(1-(oxetan-3-yl)piperidine-4-yl)-1,3-dihydro-2H-benzo[d]imidazole-2-one] | 38 | > 10000
17 | CN1CCC(n2c(=O)n(Cc3ccc(-c4nnc(C(F)F)o4)cn3)c3cc(C(F)(F)F)ccc32)CC1 [Compound 89, 3-((5-(5-(difluoromethyl)-1,3,4-oxadiazole-2-yl)pyridine-2-yl)methyl)-1-(1-methylpiperidine-4-yl)-5-(trifluoromethyl)-1,3-dihydro-2H-benzo[d]imidazole-2-one] | 38 | > 10000
18 | O=c1n(Cc2ccc(-c3nnc(C(F)F)o3)cn2)c2cc(C(F)(F)F)ccc2n1C1CCN(C2COC2)CC1 [Compound 90, 3-((5-(5-(difluoromethyl)-1,3,4-oxadiazole-2-yl)pyridine-2-yl)methyl)-1-(1-(oxetan-3-yl)piperidine-4-yl)-5-(trifluoromethyl)-1,3-dihydro-2H-benzo[d]imidazole-2-one] | 31 | > 10000
19 | CN1CCC(n2c(=O)n(Cc3ccc(-c4nnc(C(F)F)o4)cc3F)c3cc(C(F)(F)F)ccc32)CC1 [Compound 91] | 58 | > 10000
20 | O=c1n(Cc2ccc(-c3nnc(C(F)F)o3)cc2F)c2cc(C(F)(F)F)ccc2n1C1CCN(C2COC2)CC1 [Compound 92, 3-(4-(5-(difluoromethyl)-1,3,4-oxadiazole-2-yl)-2-fluorobenzyl)-1-(1-(oxetan-3-yl)piperidine-4-yl)-5-(trifluoromethyl)-1,3-dihydro-2H-benzo[d]imidazole-2-one] | 62 | > 10000
